Values after ≈ are worked out from the molar mass of the structure shown.
Tests used:
[1] = Microsomal stability in mouse liver microsomes assessed as intrinsic clearance; type: ADME, Microsome; settings: read-out: CLH
[2] = Microsomal stability in human liver microsomes assessed as intrinsic clearance; type: ADME, Microsome; settings: read-out: CLH
[3] = Aqueous solubility of the compound in PBS buffer at pH 7.4; type: physicochemical
Hepatitis B virus [4] = assay: Antiviral activity against Hepatitis B virus infected in human HepDE19 cells assessed as reduction in viral replication incubated for 3 to 7 days by PCR analysis; type: functional, organism-based
Hepatitis B virus [5] = assay: Antiviral activity against Hepatitis B virus Genotype D infected in NOD.CB17-PrkdcSCID/J mouse model assessed as log reduction in serum HBV DNA level at 30 mg/kg,po dosed for 7 consecutive days by qPCR analysis; type: functional
[6] = Half life in CD-1 mouse at 2 mg/kg,iv; type: ADME, organism-based; settings: in vivo
[7] = Cmax in CD-1 mouse at 10 mg/kg,po; type: ADME, organism-based; parameters: dose 10 mg/kg, route po; settings: in vivo
[8] = AUC (0-infinity) in CD-1 mouse at 10 mg/kg,po; type: ADME, organism-based; parameters: dose 10 mg/kg, route po; settings: in vivo
Hepatitis B virus [9] = assay: Antiviral activity against Hepatitis B virus Genotype D infected in NOD.CB17-PrkdcSCID/J mouse model assessed as reduction in serum HBV DNA level at po dosed for 7 consecutive days; type: functional, organism-based
Hepatitis B virus [10] = assay: Antiviral activity against Hepatitis B virus Genotype D infected in NOD.CB17-PrkdcSCID/J mouse model assessed as log reduction in serum HBV DNA level at 100 mg/kg,po dosed for 7 consecutive days by qPCR analysis; type: functional
[11] = Clearance in CD-1 mouse at 2 mg/kg,iv; type: ADME, organism-based; settings: in vivo
[12] = Cytotoxicity against human HepDE19 cells incubated for 48 hrs by cell titer-glo luminescent based cell viability assay; type: toxicity
Hepatitis B virus [13] = assay: Antiviral activity against Hepatitis B virus infected in mouse AML12 cells assessed as reduction in viral replication incubated for 2 days by SYBR green based PCR analysis; type: functional, organism-based; settings: AML12, 48 h
Hepatitis B virus [14] = assay: Antiviral activity against Hepatitis B virus Genotype D infected in NOD.CB17-PrkdcSCID/J mouse model assessed as log reduction in serum HBV DNA level at 10 mg/kg,po dosed for 7 consecutive days by qPCR analysis; type: functional

| Structure (SMILES) | microsomal CLint [1] [µL/min/mg] | microsomal CLint [2] [µL/min/mg] | solubility [3] [µM] | EC50 (Hepatitis B virus [4]) [nM] | further results |
| --- | --- | --- | --- | --- | --- |
| O=C(N[C@H]1CCc2c(C(=O)Nc3ccc(F)c(Cl)c3)ccc(F)c21)OCCn1ccnc1 | 20 | 20 | 16.9 (≈ 7.79 µg/mL) | 300 | – |
| O=C(N[C@H]1CCc2c(C(=O)Nc3ccc(F)c(Cl)c3)ccc(F)c21)OCc1ccccn1 | 36 | 11 | < 1.6 | 95 | Activity (Hepatitis B virus [5]): 0.8 log10CFU; half-life [6]: 1.2 h; Cmax [7]: 695 ng/mL; AUC(0-inf) [8]: 7230 ng·h/mL; Activity (Hepatitis B virus [9]): Dose-Dependent Effect; Activity (Hepatitis B virus [10]): 1.6 log10CFU; clearance [11]: 28 mL/min/kg |
| O=C(N[C@H]1CCc2c(C(=O)Nc3ccc(F)c(Cl)c3)ccc(F)c21)OCc1ccncn1 | 45 | 1 | 7.5 (≈ 3.44 µg/mL) | 390 | – |
| O=C(N[C@H]1CCc2c(C(=O)Nc3ccc(F)c(Cl)c3)ccc(F)c21)OCc1ncco1 | 23 | 7.5 | < 1.6 | 71 | – |
| COC(=O)N[C@H]1CCCc2c(C(=O)Nc3ccc(F)c(F)c3)cccc21 | 21 | 0.3 | – | 8600 | – |
| COC(=O)N[C@H]1CCOc2c1ccc(F)c2C(=O)Nc1ccc(F)c(F)c1 | – | – | – | 3710 | CC50 at 48 h [12]: > 25000 nM |
| COC(=O)N[C@H]1CCOc2c(C(=O)Nc3cc(F)c(F)c(F)c3)cccc21 | – | – | – | 1170 | CC50 at 48 h [12]: > 25000 nM |
| Cn1ccnc1COC(=O)N[C@H]1CCc2c(C(=O)Nc3ccc(F)c(Cl)c3)ccc(F)c21 | 96 | 104 | < 1.6 | 280 | – |
| COC(=O)N[C@H]1CCc2c(C(=O)Nc3ccc(F)c(Cl)c3)ccc(F)c21 | 9.2 | 3.5 | < 1.6 | 170 | – |
| O=C(N[C@H]1CCc2c(C(=O)Nc3ccc(F)c(Cl)c3)ccc(F)c21)OCc1cc[nH]n1 | 17 | 8 | < 1.6 | 74 | – |
| O=C(N[C@H]1CCc2c(C(=O)Nc3ccc(F)c(Cl)c3)ccc(F)c21)OCc1nc[nH]n1 | 9 | 0.2 | 6.1 (≈ 2.73 µg/mL) | 79 | – |
| COC(=O)N[C@H]1CCOc2c(C(=O)Nc3ccc(F)c(Cl)c3)ccc(F)c21 | – | – | – | 200 | CC50 at 48 h [12]: > 25000 nM |
| O=C(Nc1ccc(F)c(Cl)c1)c1cccc2c1OCCO2 | – | – | – | – | EC50 (Hepatitis B virus [13]): 200 nM |
| COC(=O)N[C@H]1CCOc2c(C(=O)Nc3ccc(F)c(Cl)c3)cccc21 | – | – | – | 850 | CC50 at 48 h [12]: > 25000 nM; EC50 (Hepatitis B virus [13]): 280 nM |
| Cn1nccc1COC(=O)N[C@H]1CCc2c(C(=O)Nc3ccc(F)c(Cl)c3)ccc(F)c21 | 25 | 38 | 9.1 (≈ 4.19 µg/mL) | 100 | – |
| COC(=O)N[C@H]1CCOc2c(C(=O)Nc3ccc(F)c(F)c3)c(F)cc(F)c21 | – | – | – | 800 | CC50 at 48 h [12]: > 25000 nM |
| COC(=O)N[C@H]1COc2c(C(=O)Nc3ccc(F)c(F)c3)cccc21 | 41 | 5 | – | 1320 | – |
| O=C(N[C@H]1CCc2c(C(=O)Nc3ccc(F)c(Cl)c3)ccc(F)c21)OCc1ncccn1 | 17 | 3.5 | 4.5 (≈ 2.06 µg/mL) | 120 | – |
| COC(=O)N[C@H]1CCOc2c(C(=O)Nc3ccc(F)c(F)c3)ccc(F)c21 | – | – | – | 570 | CC50 at 48 h [12]: > 25000 nM |
| COC(=O)N[C@H]1CCOc2c1ccc(F)c2C(=O)Nc1ccc(F)c(Cl)c1 | – | – | – | 2230 | CC50 at 48 h [12]: > 25000 nM |
| COC(=O)N[C@H]1CCCOc2c(C(=O)Nc3ccc(F)c(F)c3)cccc21 | – | – | – | > 25000 | – |
| COC(=O)N[C@H]1CCOc2c(C(=O)Nc3ccc(F)c(F)c3)cccc21 | – | – | – | 2250 | CC50 at 48 h [12]: > 25000 nM; EC50 (Hepatitis B virus [13]): 710 nM |
| Cn1ccc(COC(=O)N[C@H]2CCc3c(C(=O)Nc4ccc(F)c(Cl)c4)ccc(F)c32)n1 | 23 | 7.9 | 4.8 (≈ 2.21 µg/mL) | 47 | Activity (Hepatitis B virus [14]): 0.5 log10CFU; Activity (Hepatitis B virus [5]): 1.4 log10CFU; half-life [6]: 3.5 h; Cmax [7]: 913 ng/mL; AUC(0-inf) [8]: 5160 ng·h/mL; Activity (Hepatitis B virus [9]): Dose-Dependent Effect; Activity (Hepatitis B virus [10]): 2.5 log10CFU; clearance [11]: 19 mL/min/kg |
| O=C(N[C@H]1CCc2c(C(=O)Nc3ccc(F)c(Cl)c3)ccc(F)c21)OCc1cnccn1 | 18 | 6.9 | < 1.6 | 120 | – |
| O=C(N[C@H]1CCc2c(C(=O)Nc3ccc(F)c(Cl)c3)ccc(F)c21)OCCO | 3 | 1 | 6.4 (≈ 2.63 µg/mL) | 200 | – |
| COCCOC(=O)N[C@H]1CCc2c(C(=O)Nc3ccc(F)c(Cl)c3)ccc(F)c21 | 8.1 | 8.2 | 2.8 (≈ 1.19 µg/mL) | 190 | – |
| COCCCOC(=O)N[C@H]1CCc2c(C(=O)Nc3ccc(F)c(Cl)c3)ccc(F)c21 | 55 | 10 | 3 (≈ 1.32 µg/mL) | 580 | – |
| O=C(N[C@H]1CCc2c(C(=O)Nc3ccc(F)c(Cl)c3)ccc(F)c21)OCc1ccon1 | 33 | 4.8 | < 1.6 | 120 | – |
| COC(=O)N[C@H]1CCc2c(C(=O)Nc3ccc(F)c(F)c3)cccc21 | 9.2 | 0.6 | – | 590 | – |
| CC(=O)NCCOC(=O)N[C@H]1CCc2c(C(=O)Nc3ccc(F)c(Cl)c3)ccc(F)c21 | 17 | 133 | 43.4 (≈ 19.6 µg/mL) | 190 | – |

From ChEMBL document CHEMBL5365440, “Design, synthesis, and structure-activity relationship of a bicyclic HBV capsid assembly modulator chemotype leading to the identification of clinical candidate AB-506” (Bioorg Med Chem Lett, 2023)
